In the supplement of paper PMC7840683:
Counter-ions that a name gives are not always drawn.

Test system: HepaRG
Experiment: LDH release cytotoxicity, % of total lysis control; higher = more cytotoxic
Settings: 48 h
Summary of the method: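 Single-lot HepaRG cells in collagen I-coated 96-well plates were treated for 48 h in serum-free induction medium containing 0.5% DMSO with test chemicals in eight-point half-log series up to 100 µM. For total lysis, wells received 0.1% Triton X. LDH in 50 µL spent medium was assayed by resorufin fluorescence with CytoTox-ONE. Percent cytotoxicity was normalized to the on-plate vehicle and total lysis controls, with duplicates averaged.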

Cc1c(C)c2c(c(C)c1O)CCC(C)(COc1ccc(CC3SC(=O)NC3=O)cc1)O2 (stereo unspecified) [Troglitazone]
Settings	LDH release cytotoxicity [%]
0.03162 µM	-0.878
0.1 µM	-0.342
0.3162278 µM	-1.04
1 µM	-0.379
3.16228 µM	-0.376
10 µM	-1.1
31.6228 µM	8.12
100 µM	62.4

CC[C@H](C)C1O[C@]2(C=C[C@@H]1C)C[C@@H]1C[C@@H](C/C=C(\C)[C@@H](O[C@H]3C[C@H](OC)[C@@H](O[C@H]4C[C@H](OC)[C@H](NC)[C@H](C)O4)[C@H](C)O3)[C@@H](C)/C=C/C=C3\CO[C@@H]4[C@H](O)C(C)=C[C@@H](C(=O)O1)[C@]34O)O2 (stereo partly specified) [Emamectin benzoate]
Settings	LDH release cytotoxicity [%]
0.031623 µM	-1.83
0.1 µM	-1.09
0.316228 µM	-2.57
1 µM	-3.84
3.16228 µM	-2.51
10 µM	5.16
31.6228 µM	83.4
100 µM	87

Oc1nc(O)nc(O)n1 [Cyanuric acid]
Settings	LDH release cytotoxicity [%]
0.0314647 µM	-2.84
0.0995 µM	-3.15
0.3146466 µM	-2.69
0.995 µM	-2.08
3.14647 µM	-2.52
9.95 µM	-1.85
31.4647 µM	-1.63
99.5 µM	-0.7

COc1cccc(-c2ccc(C=CCN3CCCCCC3)cc2Cl)c1
Settings	LDH release cytotoxicity [%]
0.0286186 µM	-0.404
0.0905 µM	-2.18
0.2861861 µM	-2.02
0.905 µM	-1.85
2.86186 µM	-1.3
9.05 µM	-0.654
28.618613 µM	0.285
90.5 µM	71.6

CC(C)=CCCC(C)=CC=O [3,7-Dimethyl-2,6-octadienal]
Settings	LDH release cytotoxicity [%]
0.03162 µM	-1.99
0.1 µM	-2.58
0.3162278 µM	-1.66
1 µM	-2.25
3.16228 µM	-0.875
10 µM	-0.825
31.6228 µM	-0.501
100 µM	0.215

CCNc1nc(N)nc(Cl)n1 [Deisopropylatrazine]
Settings	LDH release cytotoxicity [%]
0.03162 µM	-0.429
0.1 µM	-1.18
0.3162278 µM	-0.471
1 µM	-1.46
3.16228 µM	-0.314
10 µM	-0.765
31.6228 µM	-0.375
100 µM	0.373

Cc1ccc(C(C)C)c(O)c1 [Thymol]
Settings	LDH release cytotoxicity [%]
0.03162 µM	-0.805
0.1 µM	-0.378
0.3162278 µM	-1.08
1 µM	-0.734
3.16228 µM	-1.25
10 µM	-0.124
31.6228 µM	0.381
100 µM	1.26

CCNc1nc(Cl)nc(NCC)n1 [Simazine]
Settings	LDH release cytotoxicity [%]
0.03162 µM	-0.667
0.1 µM	-1.85
0.3162278 µM	-2.13
1 µM	-2.25
3.16228 µM	-2.26
10 µM	-1.94
31.6228 µM	-0.91
100 µM	-0.579

Cc1ccc(N)c(N)c1 [3,4-Diaminotoluene]
Settings	LDH release cytotoxicity [%]
0.0317809 µM	-0.96
0.1005 µM	-0.403
0.317809 µM	-1.27
1.005 µM	-0.97
3.17809 µM	-0.641
10.05 µM	-0.448
31.7809 µM	-0.415
100.5 µM	0.704

CCC(=C(c1ccccc1)c1ccc(OCCN(C)C)cc1)c1ccccc1 [Tamoxifen citrate]
Settings	LDH release cytotoxicity [%]
0.02893 µM	-0.702
0.0915 µM	-0.863
0.289348 µM	-1.43
0.915 µM	-1.01
2.89348 µM	0.0489
9.15 µM	0.563
28.9348 µM	9.57
91.5 µM	88.7

Nc1ccccc1N [1,2-Phenylenediamine]
Settings	LDH release cytotoxicity [%]
0.03162 µM	-3.74
0.1 µM	-3.27
0.3162278 µM	-2.8
1 µM	-1.88
3.16228 µM	-3.1
10 µM	-2.74
31.6228 µM	-2.23
100 µM	-1.05

CC1COC(Cn2cncn2)(c2ccc(Oc3ccc(Cl)cc3)cc2Cl)O1 (stereo unspecified) [Difenoconazole]
Settings	LDH release cytotoxicity [%]
0.03162 µM	-1.39
0.1 µM	-1.4
0.3162278 µM	-1.37
1 µM	-1.47
3.16228 µM	-0.57
10 µM	-0.701
31.6228 µM	-1.41
100 µM	-0.14

O=c1ccc(=O)[nH][nH]1 [Maleic hydrazide]
Settings	LDH release cytotoxicity [%]
0.03162 µM	-0.979
0.1 µM	-0.493
0.3162278 µM	-1.74
1 µM	-0.384
3.16228 µM	-1.91
10 µM	-1.15
31.6228 µM	0.124
100 µM	2.69

CCCN(CCC)c1c([N+](=O)[O-])cc(C(F)(F)F)cc1[N+](=O)[O-] [Trifluralin]
Settings	LDH release cytotoxicity [%]
0.03162 µM	-4.73
0.1 µM	-5.31
0.3162278 µM	-5.66
1 µM	-6.43
3.16228 µM	-5.85
10 µM	-6.17
31.6228 µM	-2.1
100 µM	66.3

O=C(O)c1ccccc1 [Benzoic acid]
Settings	LDH release cytotoxicity [%]
0.0324133 µM	-0.341
0.1025 µM	-0.867
0.324134 µM	-1.11
1.025 µM	-0.944
3.24133 µM	-0.925
10.25 µM	0.28
32.4133 µM	0.174
102.5 µM	0.953

CC12CCC(=O)C=C1CCC1C2C(O)CC2(C)C(C(=O)CO)CCC12 (stereo unspecified) [Corticosterone]
Settings	LDH release cytotoxicity [%]
0.03162 µM	-1.65
0.1 µM	-0.683
0.3162278 µM	0.128
1 µM	-1.19
3.16228 µM	-0.76
10 µM	-0.609
31.6228 µM	-0.274
100 µM	1.02

CCCN(CCC)N=O [N-Nitrosodi-n-propylamine]
Settings	LDH release cytotoxicity [%]
0.03162 µM	0.0788
0.1 µM	-0.576
0.3162278 µM	-1.11
1 µM	-2.21
3.16228 µM	-1.474
10 µM	-1.09
31.6228 µM	-1.53
100 µM	0.635

COC(=O)CC(=O)OC [Dimethyl malonate]
Settings	LDH release cytotoxicity [%]
0.03162 µM	-0.603
0.1 µM	-0.89
0.3162278 µM	-0.395
1 µM	-0.704
3.16228 µM	-0.831
10 µM	-0.0631
31.6228 µM	0.8
100 µM	1.4

CCCCCCCc1ccc(O)cc1 [4-Heptylphenol]
Settings	LDH release cytotoxicity [%]
0.03162 µM	-0.653
0.1 µM	-1.61
0.3162278 µM	-0.99
1 µM	-1.03
3.16228 µM	-1.8
10 µM	-0.598
31.6228 µM	-0.324
100 µM	0.525

Nc1ccn(C2OC(CO)C(O)C2O)c(=O)n1 (stereo unspecified) [Cytarabine hydrochloride]
Settings	LDH release cytotoxicity [%]
0.03162 µM	-0.941
0.1 µM	-1.96
0.3162278 µM	-0.891
1 µM	-1.56
3.16228 µM	-0.827
10 µM	0.301
31.6228 µM	1.76
100 µM	4.47

CCCCCCCCCC[N+](C)(C)CCCCCCCCCC [Didecyldimethylammonium chloride]
Settings	LDH release cytotoxicity [%]
0.0317809 µM	-1.08
0.1005 µM	-0.913
0.317809 µM	-0.501
1.005 µM	-2.08
3.17809 µM	-0.414
10.05 µM	0.276
31.7809 µM	0.202
100.5 µM	1.33

COC(=O)Nc1nc2ccccc2[nH]1 [Carbendazim]
Settings	LDH release cytotoxicity [%]
0.03162 µM	-1.09
0.1 µM	-0.973
0.3162278 µM	-1.51
1 µM	-1.78
3.16228 µM	-1.63
10 µM	7.25
31.6228 µM	7.37
100 µM	8.69

CCc1nn(C2CCCCC2)c2cc(C3(C#N)CCC(C(=O)O)CC3)ccc12 (stereo unspecified)
Settings	LDH release cytotoxicity [%]
0.03162 µM	-0.818
0.1 µM	-1.01
0.3162278 µM	-0.56
1 µM	-1.9
3.16228 µM	-1.26
10 µM	-1.43
31.6228 µM	1.5
100 µM	7.65

CCCCCCCCCc1ccc(O)cc1 [4-Nonylphenol]
Settings	LDH release cytotoxicity [%]
0.03162 µM	-1.27
0.1 µM	-0.659
0.3162278 µM	-1.49
1 µM	-1.65
3.16228 µM	-0.715
10 µM	0.445
31.6228 µM	-0.17
100 µM	1.51

Oc1cc(Cl)ccc1Oc1ccc(Cl)cc1Cl [Triclosan]
Settings	LDH release cytotoxicity [%]
0.0322552 µM	-1.38
0.102 µM	-2.17
0.322552 µM	-2.07
1.02 µM	-1.47
3.2255232 µM	-2.05
10.2 µM	-1.6
32.2552 µM	-1.09
102 µM	-1.09

Cn1sc(Cl)cc1=O [5-Chloro-2-methyl-3(2H)-isothiazolone]
Settings	LDH release cytotoxicity [%]
0.03162 µM	-0.707
0.1 µM	-1.2
0.3162278 µM	-0.511
1 µM	-1.23
3.16228 µM	-0.949
10 µM	-0.788
31.6228 µM	-1.56
100 µM	-1.76

Cc1cc(C2CC2)nc(Nc2ccccc2)n1 [Cyprodinil]
Settings	LDH release cytotoxicity [%]
0.03162 µM	-1.37
0.1 µM	-0.753
0.3162278 µM	-0.874
1 µM	-1.16
3.16228 µM	-0.24
10 µM	-0.264
31.6228 µM	0.71
100 µM	11.3

O=C(N[C@H](c1ccccc1)[C@@H]1CN2CCC1CC2)c1c(Cl)ccc(C(F)(F)F)c1Cl
Settings	LDH release cytotoxicity [%]
0.0292511 µM	-0.907
0.0925 µM	-0.886
0.292511 µM	-1.02
0.925 µM	-1.22
2.9251068 µM	-0.0305
9.25 µM	1.38
29.251068 µM	16.1
92.5 µM	82.5

CC(C)(c1ccc(O)cc1)c1ccc(O)cc1 [Bisphenol A]
Settings	LDH release cytotoxicity [%]
0.03162 µM	-1.32
0.1 µM	-0.356
0.3162278 µM	-1.1
1 µM	-1.37
3.16228 µM	-0.158
10 µM	0.439
31.6228 µM	0.463
100 µM	1.47

C=CCc1cc(S(=O)(=O)c2ccc(O)c(CC=C)c2)ccc1O [4,4'-Sulfonylbis[2-(prop-2-en-1-yl)phenol]]
Settings	LDH release cytotoxicity [%]
0.03162 µM	-0.87
0.1 µM	-2.88
0.3162278 µM	-1.86
1 µM	-2.39
3.16228 µM	-2.01
10 µM	-1.55
31.6228 µM	-1.16
100 µM	0.193

OB(O)O [Boric acid (H3BO3)]
Settings	LDH release cytotoxicity [%]
0.03162 µM	-0.989
0.1 µM	-0.753
0.3162278 µM	0.0737
1 µM	-0.582
3.16228 µM	-0.954
10 µM	-0.232
31.6228 µM	0.368
100 µM	0.851

CCCCc1ccccc1 [Butylbenzene]
Settings	LDH release cytotoxicity [%]
0.03162 µM	-0.0627
0.1 µM	-0.967
0.3162278 µM	-0.793
1 µM	-0.547
3.16228 µM	-0.941
10 µM	-0.027
31.6228 µM	-0.00747
100 µM	1.27

O=C(NC(c1ccccc1)C1CCCCN1)c1cccc(C(F)(F)F)c1Cl (stereo unspecified)
Settings	LDH release cytotoxicity [%]
0.03162 µM	-1.29
0.1 µM	-1.57
0.3162278 µM	-0.0611
1 µM	-1.79
3.16228 µM	-0.61
10 µM	0.734
31.6228 µM	24.2
100 µM	86.2

N#CN [Cyanamide]
Settings	LDH release cytotoxicity [%]
0.03162 µM	-0.717
0.1 µM	-2.37
0.3162278 µM	-1.74
1 µM	-1.73
3.16228 µM	-2.07
10 µM	-1.59
31.6228 µM	-1.21
100 µM	-0.0755

COP(=O)(OC)SCn1c(=O)oc2cc(Cl)cnc21 [Azamethiphos]
Settings	LDH release cytotoxicity [%]
0.03162 µM	-1.96
0.1 µM	-2.24
0.3162278 µM	-2.14
1 µM	-1.66
3.16228 µM	-2.14
10 µM	-1.74
31.6228 µM	1.89
100 µM	22.6

CC1(C)NC(=O)NC1=O [5,5-Dimethylhydantoin]
Settings	LDH release cytotoxicity [%]
0.03162 µM	-2.18
0.1 µM	-2.28
0.3162278 µM	-2.14
1 µM	-3.5
3.16228 µM	-1.38
10 µM	-1.82
31.6228 µM	-1.07
100 µM	1.93

CCC(C)(c1ccc(O)cc1)c1ccc(O)cc1 [Bisphenol B]
Settings	LDH release cytotoxicity [%]
0.03162 µM	-0.0728
0.1 µM	0.29
0.3162278 µM	0.714
1 µM	2.34
3.16228 µM	1.11
10 µM	1.29
31.6228 µM	1.29
100 µM	4.62
